Assay results published in patent publication US20130041023A1, “Composition for Preventing or Treating Rotavirus Infection Comprising Licorice Extract” (priority 2010, published 2013).
Like-named read-outs stand apart in the source and are kept apart here.

Columns and labels:
[1] = system: porcine rotavirus KJ205 (G5P[7]); test: CPE inhibition effect, porcine rotavirus KJ205 (TF-104 cells treated after virus inoculation); format: cell-based; settings: for EC50: TF-104 cells; for selectivity ratio: rhesus monkey, read-out: S.I. (selective index, CC50/EC50)
Procedure: In order to the CPE (cytopathic effect) reduction effects and virucidal effects of the compounds separated from licorice on bovine rotavirus NCDV (G6P[1]) and porcine rotavirus KJ205 […][7]), the following in vitro experiment was performed using the fetal rhesus monkey kidney cell line TF-104. Inhibition %=(O.D) value of sample-treated group-(O.D) value of infected+non-administered control/(O.D) value of non-infected+non-administered control-(O.D) value of infected+non-administered control×100 [Equation 1] In the above equation, the O.D value means the absorbance measured at 540 nm. Meanwhile, in order to examine the inhibitory effects of the compounds separated from licorice on the CPE of bovine rotavirus NCDV (G6P[1]) and porcine rotavirus KJ205 […][7]), […] were washed twice with alpha-MEM containing only an antibiotic, after which the viruses were inoculated into the TF-104 cells and incubated at 37° C. for 1 hour. After 1 hour, the inoculated virus liquids were completely removed, the virus-inoculated TF-104 cells were treated with varying concentrations of the licorice extract and the polyphenolic compounds. Further, the cytopathic effect inhibition (inhibition %) of the compounds separated from licorice were calculated using equation 1 above in the same manner as described above, and the results of the calculation are shown in Table 1 below.

[2] = Cytotoxicity (CC50) in TF-104 cells; format: cell-based; settings: rhesus monkey, TF-104 cells (fetal rhesus monkey kidney cell line)
Procedure: In order to the CPE (cytopathic effect) reduction effects and virucidal effects of the compounds separated from licorice on bovine rotavirus NCDV (G6P[1]) and porcine rotavirus KJ205 […][7]), the following in vitro experiment was performed using the fetal rhesus monkey kidney cell line TF-104. First, TF-104 cells were added to a 96-well microplate at a density of 4×10^4 cells/well and cultured with alpha-MEM medium (penicillin 100 units, […], 5% FBS). When the TF-104 cells formed a monolayer, the cells were washed twice with alpha-MEM containing only an antibiotic. Each of NCDV and KJ205 was diluted to an MOI of 0.01 and placed in EP tubes. Each of the licorice extract and the polyphenolic compounds, diluted with dimethylsulfoxide (DMSO), was placed in each of the tubes at varying concentrations and then allowed to react at 4° C. for 1 hour. After 1 hour, the reaction material was inoculated into the washed TF-104 cells in such a manner that one sample concentration was inoculated into 3 wells (hereinafter referred to as “sample-treated groups”). Meanwhile, a non-infected+non-administered control (cell group not infected with NCDV or KJ205 and not treated with the compound) and an infected+non-administered control (virus control; a cell group infected with NCDV or KJ205, but not treated with the compound) were allowed to react under the same conditions for 1 hour, and then inoculated into the TF-104 cells, which were then incubated at 37° C. for 1 hours. After 1 hour, the medium was completely removed from the plate, which was then washed once with PBS. Then, […] medium containing 1 mg/mL of trypsin and antibiotic were dispensed into each well of the plate and incubated at 37° C. for 5-6 days. In the case of the infected +non-administered control group, incubation was performed for 5-6 days until the cytopathic effect (CPE) of the virus clearly appeared. […] After 5-6 days of the incubation, in order to examine the viability of the cells, […] solution (Sigma, UK) was added to each well of the place and allowed to react at 37° C. for 2 hours. Then, the medium was removed, […] solution (1% glacial acetic acid, 49% DDW, 50% EtOH) was added to each well, and after 15 minutes, the absorbance at 540 nm was measured. The virucidal effects (inhibition %) of the inventive compounds separated from licorice compared to the non-infected+non-administered control group and the infected+non-administered control group were calculated using the following equation 1, and the results of the calculation are shown in Table 1 below.

[3] = system: porcine rotavirus KJ205 (G5P[7]); test: Virucidal effect against porcine rotavirus KJ205 (sample pre-reacted with virus, neutral red readout in TF-104 cells); format: cell-based; settings: for EC50: TF-104 cells; for virucidal effect, result in words: bovine and/or porcine rotavirus as worded
Procedure: (§1) In order to the CPE (cytopathic effect) reduction effects and virucidal effects of the compounds separated from licorice on bovine rotavirus NCDV (G6P[1]) and porcine rotavirus KJ205 (G5P[7]), the following in vitro experiment was performed using the fetal rhesus monkey kidney cell line TF-104.
First, TF-104 cells were added to a 96-well microplate at a density of 4×10^4 cells/well and cultured with alpha-MEM medium (penicillin 100 units, […], 5% FBS). When the TF-104 cells formed a monolayer, the cells were washed twice with alpha-MEM containing only an antibiotic. Each of NCDV and KJ205 was diluted to an MOI of 0.01 and placed in EP tubes. Each of the licorice extract and the polyphenolic compounds, diluted with dimethylsulfoxide (DMSO), was placed in each of the tubes at varying concentrations and then allowed to react at 4° C. for 1 hour. After 1 hour, the reaction material was inoculated into the washed TF-104 cells in such a manner that one sample concentration was inoculated into 3 wells (hereinafter referred to as “sample-treated groups”). Meanwhile, a non-infected+non-administered control (cell group not infected with NCDV or KJ205 and not treated with the compound) and an infected+non-administered control (virus control; a cell group infected with NCDV or KJ205, but not treated with the compound) were allowed to react under the same conditions for 1 hour, and then inoculated into the TF-104 cells, which were then incubated at 37° C. for 1 hours. After 1 hour, the medium was completely removed from the plate, which was then washed once with PBS. Then, […] medium containing 1 mg/mL of trypsin and antibiotic were dispensed into each well of the plate and incubated at 37° C. for 5-6 days. In the case of the infected +non-administered control group, incubation was performed for 5-6 days until the cytopathic effect (CPE) of the virus clearly appeared. […] After 5-6 days of the incubation, in order to examine the viability of the cells, […] solution (Sigma, UK) was added to each well of the place and allowed to react at 37° C. for 2 hours. Then, the medium was removed, […] solution (1% glacial acetic acid, 49% DDW, 50% EtOH) was added to each well, and after 15 minutes, the absorbance at 540 nm was measured. The virucidal effects (inhibition %) of the inventive compounds separated from licorice compared to the non-infected+non-administered control group and the infected+non-administered control group were calculated using the following equation 1, and the results of the calculation are shown in Table 1 below.
Inhibition %=(O.D) value of sample-treated group−(O.D) value of infected+non-administered control/(O.D) value of non-infected+non-administered control−(O.D) value of infected+non-administered control×100 [Equation 1]
(§2) In the above equation, the O.D value means the absorbance measured at 540 nm.

[4] = system: bovine rotavirus NCDV (G6P[1]); test: Virucidal effect against bovine rotavirus NCDV (sample pre-reacted with virus, neutral red readout in TF-104 cells); format: cell-based
Procedure: as §1
First, TF-104 cells were added to a 96-well microplate at a density of 4×10^4 cells/well and cultured with alpha-MEM medium (penicillin 100 units, […], 5% FBS). When the TF-104 cells formed a monolayer, the cells were washed twice with alpha-MEM containing only an antibiotic. Each of NCDV and KJ205 was diluted to an MOI of 0.01 and placed in EP tubes. […] Then, the medium was removed, […] solution (1% glacial acetic acid, 49% DDW, 50% EtOH) was added to each well, and after 15 minutes, the absorbance at 540 nm was measured. The virucidal effects (inhibition %) of the inventive compounds separated from licorice compared to the non-infected+non-administered control group and the infected+non-administered control group were calculated using the following equation 1, and the results of the calculation are shown in Table 1 below. […]
as §2

[5] = CPE inhibition effect section, KJ205 (G5P[7]), read-out: CC50
[6] = Virucidal effect, KJ205 (G5P[7])

Compound	EC50 [1] [µM]	selectivity ratio [1]	CC50 [2, 5] [µM]	melting point [°C]	EC50 [3, 6] [µM]	virucidal effect, result in words [3]	EC50 ([4]; Rotavirus A, TF-104 cells, read-out: EC50 (50% concentration from inhibition concentration)) [µM]	selectivity ratio ([4]; rhesus monkey, read-out: S.I. (selective index, CC50/EC50))	selectivity ratio ([3]; rhesus monkey, Virucidal effect, KJ205 (G5P[7]), read-out: S.I. (selective index, CC50/EC50))	CC50 ([2]; Virucidal effect section, NCDV (G6P[1]) columns, read-out: CC50 (50% concentration from cytotoxic concentration)) [µM]
O=C(/C=C/c1ccc(O)cc1)c1ccc(O)cc1O [Compound 1, isoliquiritigenin]	35.3	3.9	138	–	–	–	–	–	–	–
COc1cc(O)ccc1C(=O)/C=C/c1ccc(O)cc1 [Compound 2, 2-methoxyisoliquiritigenin]	24	11.7	280	–	–	–	–	–	–	–
COc1c(CC=C(C)C)c(O)cc2oc(-c3ccc(O)cc3O)cc12 [Compound 3, licocoumarone]	26.1	2.3	59.6	183 to 185	26.1	good inhibitory activities against bovine and porcine rotaviruses	–	–	–	–
COc1c(CC=C(C)C)c(O)cc2c1CC(c1ccc(O)cc1O)CO2 (stereo not drawn) [Compound 4, glyasperin C]	–	–	–	–	18.7	selective virucidal effects against porcine rotavirus	26.2	1.5	2.1	39.1
